Measurements: publication PMC12090182, “Repurposing of the RIPK1-Selective Benzo[1,4]oxazepin-4-one Scaffold for the Development of a Type III LIMK1/2 Inhibitor” (ACS Chemical Biology, 2025)
Read-outs that look alike come from different tables or passages of the source.

Experiments:
Experiment in all cases: biochemical
Format in all cases: binding
[1] = target: 468 kinases including some pathogenic mutants (Homo sapiens, UniProt P00519, F317L); settings: read-out: Percent Control
[2] = target: 468 kinases including some pathogenic mutants (Homo sapiens, UniProt P07333); settings: CSF1R-autoinhibited (Entrez CSF1R), 100 nM; read-out: Percent Control
[3] = target: 468 kinases including some pathogenic mutants (Homo sapiens, UniProt P10721); settings: 100 nM, read-out: Percent Control
Chain of 468 kinases including some pathogenic mutants (Homo sapiens, UniProt P10721) (P10721 26-976, stated change not applied): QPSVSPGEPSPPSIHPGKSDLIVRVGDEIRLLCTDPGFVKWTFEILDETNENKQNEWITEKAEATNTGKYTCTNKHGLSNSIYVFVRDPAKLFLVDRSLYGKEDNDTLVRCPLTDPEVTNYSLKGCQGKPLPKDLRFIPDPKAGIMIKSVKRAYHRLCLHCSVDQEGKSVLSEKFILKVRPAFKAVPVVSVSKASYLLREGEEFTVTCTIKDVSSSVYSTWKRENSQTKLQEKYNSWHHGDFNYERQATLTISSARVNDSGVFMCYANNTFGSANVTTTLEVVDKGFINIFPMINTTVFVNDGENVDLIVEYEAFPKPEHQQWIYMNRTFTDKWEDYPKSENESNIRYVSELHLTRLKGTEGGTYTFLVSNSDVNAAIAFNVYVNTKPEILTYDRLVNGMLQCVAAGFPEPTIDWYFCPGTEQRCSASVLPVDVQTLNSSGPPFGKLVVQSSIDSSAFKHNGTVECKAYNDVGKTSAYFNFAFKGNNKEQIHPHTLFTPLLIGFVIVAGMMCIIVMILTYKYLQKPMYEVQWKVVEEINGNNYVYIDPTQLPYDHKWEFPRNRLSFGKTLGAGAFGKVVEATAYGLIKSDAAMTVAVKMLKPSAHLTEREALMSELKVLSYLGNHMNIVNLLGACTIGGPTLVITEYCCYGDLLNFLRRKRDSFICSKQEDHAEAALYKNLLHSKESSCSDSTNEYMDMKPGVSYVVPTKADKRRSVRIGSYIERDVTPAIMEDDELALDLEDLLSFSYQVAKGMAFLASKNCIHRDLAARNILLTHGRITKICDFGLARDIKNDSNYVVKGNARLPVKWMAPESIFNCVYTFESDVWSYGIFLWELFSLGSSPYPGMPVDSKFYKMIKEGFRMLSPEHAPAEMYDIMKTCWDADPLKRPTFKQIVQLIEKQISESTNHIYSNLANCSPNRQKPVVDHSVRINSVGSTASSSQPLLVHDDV

[4] = target: 468 kinases including some pathogenic mutants (Homo sapiens, UniProt P10721, A829P); settings: read-out: Percent Control
[5] = target: 468 kinases including some pathogenic mutants (Homo sapiens, UniProt P10721, D816H); settings: read-out: Percent Control
[6] = target: 468 kinases including some pathogenic mutants (Homo sapiens, UniProt P15056); settings: BRAF (Entrez BRAF), 100 nM; read-out: Percent Control
[7] = target: 468 kinases including some pathogenic mutants (Homo sapiens, UniProt P36888, N841I); settings: read-out: Percent Control
[8] = target: 468 kinases including some pathogenic mutants (Homo sapiens, UniProt P36897); settings: TGFBR1 (Entrez TGFBR1), 1000 nM; read-out: Percent Control
[9] = target: 468 kinases including some pathogenic mutants (Homo sapiens, UniProt P37173); settings: TGFBR2 (Entrez TGFBR2), 1000 nM; read-out: Percent Control
[10] = target: 468 kinases including some pathogenic mutants (Homo sapiens, UniProt P42681); settings: TXK (Entrez TXK), 100 nM; read-out: Percent Control
[11] = target: 468 kinases including some pathogenic mutants (Homo sapiens, UniProt P48736); settings: PIK3CG (Entrez PIK3CG), 100 nM; read-out: Percent Control
[12] = target: 468 kinases including some pathogenic mutants (Homo sapiens, UniProt P51957); settings: NEK4 (Entrez NEK4), 1000 nM; read-out: Percent Control
[13] = target: 468 kinases including some pathogenic mutants (Homo sapiens, UniProt P52333); settings: JAK3(JH1domain-catalytic) (Entrez JAK3), 100 nM; read-out: Percent Control
[14] = target: 468 kinases including some pathogenic mutants (Homo sapiens, UniProt P78356); settings: PIP5K2B (Entrez PIP4K2B), 100 nM; read-out: Percent Control
[15] = target: 468 kinases including some pathogenic mutants (Homo sapiens, UniProt Q00526); settings: CDK3 (Entrez CDK3), 100 nM; read-out: Percent Control
[16] = target: 468 kinases including some pathogenic mutants (Homo sapiens, UniProt Q02763); settings: TIE2 (Entrez TEK), 1000 nM; read-out: Percent Control
[17] = target: 468 kinases including some pathogenic mutants (Homo sapiens, UniProt Q05655); settings: PRKCD (Entrez PRKCD), 1000 nM; read-out: Percent Control
Chain of 468 kinases including some pathogenic mutants (Homo sapiens, UniProt Q05655) (Q05655 whole entry, change not shown): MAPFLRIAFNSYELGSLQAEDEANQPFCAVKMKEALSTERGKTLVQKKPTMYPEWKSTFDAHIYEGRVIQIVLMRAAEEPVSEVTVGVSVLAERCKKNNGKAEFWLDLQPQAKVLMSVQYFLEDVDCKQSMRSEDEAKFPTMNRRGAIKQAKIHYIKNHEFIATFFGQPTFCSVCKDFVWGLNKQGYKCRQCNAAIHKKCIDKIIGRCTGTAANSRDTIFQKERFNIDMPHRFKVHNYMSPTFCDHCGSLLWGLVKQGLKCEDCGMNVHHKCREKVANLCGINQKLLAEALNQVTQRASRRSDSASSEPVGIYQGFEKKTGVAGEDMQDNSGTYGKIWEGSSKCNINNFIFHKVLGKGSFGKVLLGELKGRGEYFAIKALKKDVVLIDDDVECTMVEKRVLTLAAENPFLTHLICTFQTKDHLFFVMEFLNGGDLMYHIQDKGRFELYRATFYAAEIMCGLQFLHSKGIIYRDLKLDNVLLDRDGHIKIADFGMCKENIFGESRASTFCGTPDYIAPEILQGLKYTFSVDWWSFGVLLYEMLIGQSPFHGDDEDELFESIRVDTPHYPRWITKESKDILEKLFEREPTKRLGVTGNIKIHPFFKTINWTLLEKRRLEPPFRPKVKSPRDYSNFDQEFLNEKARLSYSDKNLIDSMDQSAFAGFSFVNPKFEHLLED

[18] = target: 468 kinases including some pathogenic mutants (Homo sapiens, UniProt Q13705); settings: ACVR2B (Entrez ACVR2B), 100 nM; read-out: Percent Control
[19] = target: 468 kinases including some pathogenic mutants (Homo sapiens, UniProt Q15349); settings: read-out: Percent Control
Chain of 468 kinases including some pathogenic mutants (Homo sapiens, UniProt Q15349) (Q15349 whole entry, change not shown): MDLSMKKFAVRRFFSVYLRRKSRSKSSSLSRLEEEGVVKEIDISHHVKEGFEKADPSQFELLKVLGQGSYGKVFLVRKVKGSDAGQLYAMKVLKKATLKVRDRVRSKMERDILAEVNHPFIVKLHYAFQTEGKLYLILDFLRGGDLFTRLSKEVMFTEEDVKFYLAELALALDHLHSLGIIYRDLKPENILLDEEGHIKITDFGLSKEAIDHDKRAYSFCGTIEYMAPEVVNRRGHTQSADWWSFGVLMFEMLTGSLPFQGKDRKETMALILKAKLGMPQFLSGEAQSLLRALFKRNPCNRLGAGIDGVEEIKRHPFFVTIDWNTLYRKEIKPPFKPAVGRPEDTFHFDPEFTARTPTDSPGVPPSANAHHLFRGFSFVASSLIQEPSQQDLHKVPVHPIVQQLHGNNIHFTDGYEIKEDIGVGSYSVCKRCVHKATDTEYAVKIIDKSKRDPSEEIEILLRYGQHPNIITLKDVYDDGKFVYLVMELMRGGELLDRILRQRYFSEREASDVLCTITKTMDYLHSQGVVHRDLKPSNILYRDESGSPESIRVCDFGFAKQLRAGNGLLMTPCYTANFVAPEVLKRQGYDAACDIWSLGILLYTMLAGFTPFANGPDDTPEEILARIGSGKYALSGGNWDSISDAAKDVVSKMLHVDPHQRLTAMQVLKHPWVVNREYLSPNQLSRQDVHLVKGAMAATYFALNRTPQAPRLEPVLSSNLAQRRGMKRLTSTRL

[20] = target: 468 kinases including some pathogenic mutants (Homo sapiens, UniProt Q16288); settings: TRKC (Entrez NTRK3), 100 nM; read-out: Percent Control
[21] = target: 468 kinases including some pathogenic mutants (Homo sapiens, UniProt Q16539); settings: p38-alpha (Entrez MAPK14), 1000 nM; read-out: Percent Control
Chain of 468 kinases including some pathogenic mutants (Homo sapiens, UniProt Q16539) (Q16539 whole entry, change not shown): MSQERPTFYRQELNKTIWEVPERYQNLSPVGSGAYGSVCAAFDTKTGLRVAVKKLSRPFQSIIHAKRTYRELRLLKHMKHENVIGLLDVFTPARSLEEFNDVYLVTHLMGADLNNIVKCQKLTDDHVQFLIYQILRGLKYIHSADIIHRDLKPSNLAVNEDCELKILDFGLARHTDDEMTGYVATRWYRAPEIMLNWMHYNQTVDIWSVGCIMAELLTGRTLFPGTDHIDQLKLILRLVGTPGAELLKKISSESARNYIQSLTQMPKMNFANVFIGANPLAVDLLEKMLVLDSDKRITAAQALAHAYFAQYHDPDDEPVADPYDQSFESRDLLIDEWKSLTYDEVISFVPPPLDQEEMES

[22] = target: 468 kinases including some pathogenic mutants (Homo sapiens, UniProt Q16816); settings: PHKG1 (Entrez PHKG1), 100 nM; read-out: Percent Control
Chain of 468 kinases including some pathogenic mutants (Homo sapiens, UniProt Q16816) (Q16816 whole entry, change not shown): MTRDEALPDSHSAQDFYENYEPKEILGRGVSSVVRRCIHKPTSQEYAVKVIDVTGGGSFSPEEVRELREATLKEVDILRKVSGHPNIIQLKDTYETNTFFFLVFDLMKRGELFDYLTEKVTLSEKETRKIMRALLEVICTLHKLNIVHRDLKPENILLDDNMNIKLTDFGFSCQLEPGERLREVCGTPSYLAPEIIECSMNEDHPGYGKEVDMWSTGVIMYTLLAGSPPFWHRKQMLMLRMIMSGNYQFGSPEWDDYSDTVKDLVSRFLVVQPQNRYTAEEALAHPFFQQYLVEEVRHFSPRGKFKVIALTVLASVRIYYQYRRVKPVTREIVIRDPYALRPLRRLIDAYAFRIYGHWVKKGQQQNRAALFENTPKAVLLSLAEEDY

[23] = target: 468 kinases including some pathogenic mutants (Homo sapiens, UniProt Q59H18); settings: TNNI3K (Entrez TNNI3K), 100 nM; read-out: Percent Control
Chain of 468 kinases including some pathogenic mutants (Homo sapiens, UniProt Q59H18) (Q59H18 whole entry, change not shown): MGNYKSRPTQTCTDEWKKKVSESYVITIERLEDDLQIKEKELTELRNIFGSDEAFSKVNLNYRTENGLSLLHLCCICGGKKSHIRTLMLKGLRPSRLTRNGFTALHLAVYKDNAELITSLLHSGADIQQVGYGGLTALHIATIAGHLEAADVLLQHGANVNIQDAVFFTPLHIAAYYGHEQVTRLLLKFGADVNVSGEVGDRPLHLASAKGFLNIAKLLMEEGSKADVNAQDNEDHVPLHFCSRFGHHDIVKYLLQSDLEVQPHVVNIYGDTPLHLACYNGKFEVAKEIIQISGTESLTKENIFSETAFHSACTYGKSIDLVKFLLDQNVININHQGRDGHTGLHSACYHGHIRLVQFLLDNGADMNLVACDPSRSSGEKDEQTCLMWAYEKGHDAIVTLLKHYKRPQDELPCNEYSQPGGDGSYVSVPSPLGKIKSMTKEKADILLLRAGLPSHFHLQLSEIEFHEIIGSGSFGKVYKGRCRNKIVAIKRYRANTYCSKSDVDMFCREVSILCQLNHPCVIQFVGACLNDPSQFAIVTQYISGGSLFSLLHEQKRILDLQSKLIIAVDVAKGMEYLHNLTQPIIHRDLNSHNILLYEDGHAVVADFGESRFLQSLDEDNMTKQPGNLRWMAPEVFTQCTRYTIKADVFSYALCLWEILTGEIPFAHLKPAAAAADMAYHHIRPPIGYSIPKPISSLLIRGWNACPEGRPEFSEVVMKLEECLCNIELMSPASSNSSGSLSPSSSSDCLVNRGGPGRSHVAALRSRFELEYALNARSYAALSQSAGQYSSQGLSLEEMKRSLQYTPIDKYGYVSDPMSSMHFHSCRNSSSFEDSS

[24] = target: 468 kinases including some pathogenic mutants (Homo sapiens, UniProt Q7KZI7); settings: MARK2 (Entrez MARK2), 100 nM; read-out: Percent Control
[25] = target: 468 kinases including some pathogenic mutants (Homo sapiens, UniProt Q86YV6); settings: MYLK4 (Entrez MYLK4), 1000 nM; read-out: Percent Control
Chain of 468 kinases including some pathogenic mutants (Homo sapiens, UniProt Q86YV6) (Q86YV6 whole entry, change not shown): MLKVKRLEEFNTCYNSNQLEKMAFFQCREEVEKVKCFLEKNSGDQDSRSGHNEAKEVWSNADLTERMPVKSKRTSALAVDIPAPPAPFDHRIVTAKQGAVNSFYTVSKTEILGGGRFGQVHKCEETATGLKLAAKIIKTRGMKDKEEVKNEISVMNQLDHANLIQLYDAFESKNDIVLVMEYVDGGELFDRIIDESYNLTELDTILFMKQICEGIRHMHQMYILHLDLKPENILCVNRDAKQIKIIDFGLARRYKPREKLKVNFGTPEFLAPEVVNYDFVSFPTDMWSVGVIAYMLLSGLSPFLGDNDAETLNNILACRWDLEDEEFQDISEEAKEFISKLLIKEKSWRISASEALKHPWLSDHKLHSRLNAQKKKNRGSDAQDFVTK

[26] = target: 468 kinases including some pathogenic mutants (Homo sapiens, UniProt Q8IVH8); settings: MAP4K3 (Entrez MAP4K3), 100 nM; read-out: Percent Control
[27] = target: 468 kinases including some pathogenic mutants (Homo sapiens, UniProt Q8NG66); settings: NEK11 (Entrez NEK11), 100 nM; read-out: Percent Control
[28] = target: 468 kinases including some pathogenic mutants (Homo sapiens, UniProt Q9UEE5); settings: DRAK1 (Entrez STK17A), 100 nM; read-out: Percent Control
Chain of 468 kinases including some pathogenic mutants (Homo sapiens, UniProt Q9UEE5) (Q9UEE5 whole entry, change not shown): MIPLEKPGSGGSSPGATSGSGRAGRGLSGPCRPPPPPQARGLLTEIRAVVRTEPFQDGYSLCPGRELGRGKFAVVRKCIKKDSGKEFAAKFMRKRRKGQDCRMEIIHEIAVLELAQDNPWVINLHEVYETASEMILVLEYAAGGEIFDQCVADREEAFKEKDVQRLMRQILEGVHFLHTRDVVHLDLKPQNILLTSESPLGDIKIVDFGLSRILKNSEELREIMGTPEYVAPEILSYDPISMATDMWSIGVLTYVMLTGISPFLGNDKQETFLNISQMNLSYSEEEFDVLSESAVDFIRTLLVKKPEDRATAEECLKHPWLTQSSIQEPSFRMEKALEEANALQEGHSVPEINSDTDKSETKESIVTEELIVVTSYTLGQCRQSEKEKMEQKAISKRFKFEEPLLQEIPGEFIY

For `CN1C(=O)[C@@H](N2CCc3c(nn(Cc4ccccc4)c3C(N)=O)C2=O)COc2cc(Cl)ccc21` [Compound 10, (S)-2-benzyl-6-(8-chloro-5-methyl-4-oxo-2,3,4,5-tetrahydrobenzo[b][1,4]oxazepin-3-yl)-7-oxo-4,5,6,7-tetrahydro-2H-pyrazolo[3,4-c]pyridine-3-carboxamide], the remaining activity at 0.1 µM [1] was 88%, the remaining activity at 0.1 µM [2] was 80% and the remaining activity at 0.1 µM ([3]; KIT (Entrez KIT)) was 69%. It also gave a remaining activity at 0.1 µM ([3]; KIT-autoinhibited (Entrez KIT)) of 100%, a remaining activity at 1 µM [4] of 100% and a remaining activity at 0.1 µM [5] of 100%. It also gave a remaining activity at 0.1 µM [6] of 58%, a remaining activity at 0.1 µM [7] of 72% and a remaining activity at 1 µM [8] of 100%. The remaining activity at 1 µM [9] was 100%, the remaining activity at 0.1 µM [10] was 88% and the remaining activity at 0.1 µM [11] was 65%. The remaining activity at 1 µM [12] was 100%, the remaining activity at 0.1 µM [13] was 100% and the remaining activity at 0.1 µM [14] was 55%. For the same molecule, the remaining activity at 0.1 µM [15] was 80%, the remaining activity at 1 µM [16] was 100% and the remaining activity at 1 µM [17] was 100%. It also gave a remaining activity at 0.1 µM [18] of 92%, a remaining activity at 0.1 µM ([19]; RSK3(Kin.Dom.1-N-terminal) (Entrez RPS6KA2), 100 nM) of 100% and a remaining activity at 1 µM ([19]; RSK3(Kin.Dom.2-C-terminal) (Entrez RPS6KA2), 1000 nM) of 100%. The remaining activity at 0.1 µM [20] was 79%, the remaining activity at 1 µM [21] was 100% and the remaining activity at 0.1 µM [22] was 94%. For the same molecule, the remaining activity at 0.1 µM [23] was 82%, the remaining activity at 0.1 µM [24] was 78% and the remaining activity at 1 µM [25] was 100%. The remaining activity at 0.1 µM [26] was 83%, the remaining activity at 0.1 µM [27] was 76% and the remaining activity at 0.1 µM [28] was 84%.
